Series [1] has as its system T. brucei brucei (bloodstream form strain 427). The series can be described thus: T. brucei growth inhibition assay. In kind it is cell-based. To be noted: Trypanosoma brucei, read-out: EC50 (growth of T. brucei in cell culture). An excerpt: T. brucei brucei (bloodstream form strain 427 from K. Stuart, Seattle BioMed, Seattle, WA) were used for EC50 measurements as previously described, [14].

Series [2] has as its target T1, T. brucei methionyl-tRNA synthetase (TbMetRS) (Trypanosoma brucei brucei, UniProt Q38C91).
T1 construct: hexa-histidine tag (3C protease site) (N, cleaved yes); made in house; host or cells: E. coli
T1 sequence (Q38C91 1-773): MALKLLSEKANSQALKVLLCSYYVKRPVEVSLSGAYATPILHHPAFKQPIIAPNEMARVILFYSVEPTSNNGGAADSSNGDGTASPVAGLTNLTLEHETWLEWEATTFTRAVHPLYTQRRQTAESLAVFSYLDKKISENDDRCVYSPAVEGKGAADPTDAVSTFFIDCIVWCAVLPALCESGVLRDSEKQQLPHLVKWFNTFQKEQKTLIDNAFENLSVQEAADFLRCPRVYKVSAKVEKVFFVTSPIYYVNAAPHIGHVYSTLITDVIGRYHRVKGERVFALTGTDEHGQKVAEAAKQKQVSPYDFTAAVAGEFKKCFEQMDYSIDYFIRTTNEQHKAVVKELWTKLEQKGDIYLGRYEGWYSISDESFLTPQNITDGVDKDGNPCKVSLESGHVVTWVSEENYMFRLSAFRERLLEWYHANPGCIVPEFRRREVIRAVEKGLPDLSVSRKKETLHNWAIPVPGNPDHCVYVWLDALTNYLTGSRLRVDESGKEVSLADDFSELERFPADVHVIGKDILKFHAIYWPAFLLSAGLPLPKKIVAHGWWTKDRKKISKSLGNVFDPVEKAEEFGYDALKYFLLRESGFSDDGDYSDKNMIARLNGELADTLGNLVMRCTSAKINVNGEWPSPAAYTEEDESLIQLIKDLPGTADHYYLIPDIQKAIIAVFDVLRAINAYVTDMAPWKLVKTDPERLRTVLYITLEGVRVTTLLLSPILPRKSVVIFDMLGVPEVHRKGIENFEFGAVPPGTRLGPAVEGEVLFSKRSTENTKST
The series can be described thus: T. brucei methionyl-tRNA synthetase aminoacylation assay. In kind it is biochemical. To be noted: for IC50: read-out: IC50 (aminoacylation activity of purified TbMetRS). On the procedure: Compound IC50s were determined in the T. brucei methionyl-tRNA synthetase aminoacylation assay as previously described, [14] except 10 U/mL of pyrophosphatase was used per reaction.

Another series concerns the target T2, TbMetRS (Trypanosoma brucei brucei, UniProt Q38C91).
T2 construct: hexa-histidine tag (3C protease site) (N, cleaved yes); made in house; host or cells: E. coli
T2 sequence (Q38C91 1-773): T1 sequence (Q38C91 1-773)
Description: Thermal melt of TbMetRS with combinations of ligands (Chem 1433, ATP, AMPPCP, Mg2+). Format: binding. To be noted: for change in Tm of TbMetRS in the presence of the nucleotide and Mg2+: compared to TbMetRS only, no inhibitor. As for the experimental part: Thermal melt experiments on TbMetRS in the presence of different combinations of ligands were performed to determine the nature of the interactions between Chem 1433 and ATP when they are bound to TbMetRS. A similar analysis has been used to establish synergism between an inhibitor of human ProRS, halofuginone, and ATP [25]. An increase in Tm of the TbMetRS•1433 complex upon adding ATP may be an indication of synergism between Chem 1433 and ATP in binding. […] Instead, the addition of ATP-Mg^2+ or AMPPCP-Mg^2+ to the complex of the TbMetRS•Chem 1433 complex result in increase of Tm by an average of 1.6°C (n = 4, P<0.02) and 1.2°C (n = 4, P<0.05), respectively, compared to the Tm of TbMetRS•Chem 1433 alone (Figure S4).
(§1) Supplementary file pntd.0002775.s004.pdf: Figure S4 Thermal melting curves of Tb MetRS in the presence of different ligands. TbMetRS (0.1 mg/ml) is incubated in the presence of different ligands as indicated. The incubation temperature of the samples is increased from 20°C to 90°C and the fluorescence signal from the reporter dye (Sypro Orange) monitored. Melting temperatures (Tm) are calculated from the curves as the temperature where the first derivative value is maximal. The average Tm value of TbMetRS in the presence of Chem 1433, ATP and Mg^2+ (purple dash) is 1.6°C higher than the Tm of TbMetRS in the presence of Chem 1433 only (n = 4, P<0.02). The average Tm of TbMetRS in the presence of Chem 1433, AMPPCP and Mg^2+ (black dot) is 1.2°C higher than the Tm of TbMetRS in the presence of Chem 1433 only (n = 4, P<0.05). Changes in Tm of TbMetRS in the presence of ATP and Mg^2+ or AMPPCP and Mg^2+ compared to TbMetRS only are insignificant (P>0.3 and 0.8 respectively). (PDF) Click here for additional data file.
A typical thermal melting curves of TbMetRS in the presence of different ligands.
as §1, with “TbMetRS” for “Supplementary file pntd.0002775.s004.pdf: Figure S4 Thermal melting curves of Tb MetRS in the presence of different ligands. TbMetRS”, “Mg2+” for “Mg^2+”, “P < 0.02).” for “P<0.02).”, “P < 0.05).” for “P<0.05).”, “(P > 0.3” for “(P>0.3”, “respectively).” for “respectively). (PDF) Click here for additional data file.”
(1 picture or pasted object on this page, not shown here)

For the next series, the system named is T. brucei infection. Also noted: method as in PMID 22720744. To be noted: administered orally; cited from earlier work.
Details of series [3]: method as in PMID 22720744. To be noted: cited from earlier work.
The subject of series [4] is Staphylococcus aureus MetRS. Also noted: method as in PMID 19015366. As to conditions: physiological ATP 2500 µM versus 25 µM; cited from earlier work.
Another series deals with MDR-1 MDCKII. As to conditions: cited from earlier work.
In series [5] the target is T1, T. brucei methionyl-tRNA synthetase (TbMetRS). Also noted: method as in PMID 22720744. As to conditions: previously reported ABI, used for comparison; read-out: IC50 of the ABI Chem 1312 against TbMetRS; cited from earlier work.

Structures are written as SMILES. Entries after “also recorded” stand apart in the source; their conditions may differ. Where two headings read alike, the source gives them in different places.

As for `C=CCc1cc(Cl)cc(CNCCCNC(=O)Nc2ccsc2)c1O` [Chem 1472], the EC50 (usually the concentration at which the effect is half-maximal) in series [1] amounted to 5260 nM. In series [2], the half-maximal inhibitory concentration (IC50) (as a rule, the concentration that inhibits the measured activity by half) amounted to 198 nM.

In the case of `O=C(NCCCNCc1cc(Cl)sc1Cl)Nc1ccsc1` [Chem 1509], the EC50 in series [1] stood at 2790 nM. Also, the IC50 in series [2] turned out to be 324 nM.

In the case of `Nc1ncnc2c1ncn2C1OC(COP(=O)(O)OP(=O)(O)CP(=O)(O)O)C(O)C1O` (stereo not drawn) [AMPPCP, β,γ-methyleneadenosine 5′-triphosphate], at TbMetRS, the “change in Tm of TbMetRS in the presence of the nucleotide and Mg2+” value was “does not change significantly; also recorded: insignificant”.

For `C=CCOc1c(CC=C)cc(Cl)cc1CNCCCNC(=O)Nc1ccsc1` [Chem 1475], the EC50 in series [1] stood at 1160 nM. In addition, the IC50 in series [2] is 1230 nM.

With `Nc1ncnc2c1ncn2[C@@H]1O[C@H](COP(=O)(O)OP(=O)(O)OP(=O)(O)O)[C@@H](O)[C@H]1O` [ATP], the “change in Tm of TbMetRS in the presence of the nucleotide and Mg2+” value on TbMetRS is reported as “does not change significantly; also recorded: insignificant”.

On to `O=C(NCCCNCc1cc(Cl)cc(Cl)c1)Nc1ccsc1` [Chem 1433], for which, in series [1], the EC50 was determined as 190 nM. For the same molecule, the “increase of Tm on addition of ATP-Mg2+ to the TbMetRS•Chem 1433 complex” value at TbMetRS (compared to Tm of TbMetRS•Chem 1433 alone, n = 4, P<0.02, TbMetRS 0.1 mg/ml) stood at 1.6 °C. Also, the “increase of Tm on addition of AMPPCP-Mg2+ to the TbMetRS•Chem 1433 complex” value at TbMetRS (compared to Tm of TbMetRS•Chem 1433 alone, n = 4, P<0.05, TbMetRS 0.1 mg/ml) came out at 1.2 °C. Moreover, the “fold less favorable IC50 than Chem 1312” value in series [2] (Chem 1433 (UBI) versus Chem 1312 (ABI)) is approximately 3.5 fold. In addition, the IC50 in series [2] was determined as 28 nM. Besides, the “activity against the parasite in a mouse model” value in the series with T. brucei infection is “moderate activity; also recorded: suppressive activity”. In series [3], the “entry into the central nervous system” value is “enter the central nervous system” and the oral bioavailability entry is recorded as “reasonable oral bioavailability”.

Turning to `C=C(F)c1sc(CNCCCNc2cc(O)c3ccccc3n2)c(C)c1Br` [REP8839], the “fold lower IC50 at 2500 µM ATP than at 25 µM ATP” value in series [4] is 30- to 50 fold.

Turning to `O=C(NCCCNCc1cc(Cl)cc(I)c1O)Nc1ccsc1` [Chem 1473], in series [1], the EC50 worked out at 3840 nM. In addition, the IC50 in series [2] is 316 nM.

Consider `C#Cc1cccc(CNCCCNC(=O)Nc2ccsc2)c1` [Chem 1478], for which the EC50 in series [1] worked out at 1060 nM. In addition, the IC50 in series [2] was found to be 96 nM.

Consider `CCOc1c(I)cc(Cl)cc1CNCCCNC(=O)Nc1ccsc1` [Chem 1469], for which the EC50 in series [1] is 9550 nM. For the same molecule, the IC50 in series [2] was more than 10000 nM.

As for `O=C(NCCCNCc1cc(Cl)cc(Cl)c1)Nc1ccccc1O` [Chem 1392], the EC50 in series [1] amounted to 210 nM.

Take `O=C(NCCCNCc1cc(Cl)cc(Cl)c1)Nc1ccccc1` [Chem 1356]: the EC50 in series [1] came out at 357 nM. In addition, the membrane permeability entry in the series with MDR-1 MDCKII was “excellent membrane permeability”. For the same molecule, the IC50 in series [2] is 57 nM. Moreover, the “activity against the parasite in a mouse model” value in the series on T. brucei infection is on record as “suppressive activity”. Moreover, in series [3], the “entry into the central nervous system” value was “enter the central nervous system” and the oral bioavailability entry is reported as “reasonable oral bioavailability”.

As to `COc1cc(Cl)cc(CNCCCNC(=O)Nc2ccccc2)c1` [Chem 1415], in series [1], the concentration for a half-maximal effect (EC50) was determined as 267 nM. The IC50 in series [2] worked out at 45 nM.

Regarding `O=C(NCCCNCc1cc(Cl)cc(Cl)c1)Nc1cccc(O)c1` [Chem 1387], the concentration giving a half-maximal response (EC50) in series [1] stood at 170 nM.

Consider `C=CCc1cc(Cl)cc(CNCCCNC(=O)Nc2ccsc2)c1OCc1ccccc1` [Chem 1476], for which the concentration for a half-maximal effect (EC50) in series [1] was 1120 nM. Moreover, in series [2], the IC50 was determined as 1680 nM.

Turning to `COc1cc(Cl)cc(CNCCCNC(=O)Nc2ccsc2)c1` [Chem 1444], in series [1], the EC50 worked out at 150 nM. The IC50 in series [2] came out at 19 nM.

With `Oc1cc(NCCCNCc2cc(Cl)cc(Cl)c2)nc2ccccc12` [Chem 1312], in series [5], the 50% inhibitory concentration (IC50) was 8 nM.

In the case of `Cc1sc2ccccc2c1CNCCCNC(=O)Nc1ccsc1` [Chem 1540], the EC50 in series [1] turned out to be 9410 nM. The IC50 in series [2] came out at 1360 nM.

The record behind these values is PMC3990509, “Structures of Trypanosoma brucei Methionyl-tRNA Synthetase with Urea-Based Inhibitors Provide Guidance for Drug Design against Sleeping Sickness” (PLoS Neglected Tropical Diseases, 2014).
